# Source: paper PMC5040732, “Development of a Novel Quantitative Structure-Activity Relationship Model to Accurately Predict Pulmonary Absorption and Replace Routine Use of the Isolated Perfused Respiring Rat Lung Model” (Pharmaceutical Research, 2016)
# Marks after values point to notes of the source that are not given here.
# What was measured:
# [1] = % of dose in solution in the dose formulation (dose analysis pre- and post-centrifugation); type: physicochemical; details: aqueous dose formulation
# Source text: All compounds were formulated in an aqueous vehicle, the majority (79%) containing 0.2% Tween 80 in either water or saline. Due to the diverse nature of the molecules investigated, formulations were a mix of solutions and suspensions ranging from <1 to 100% compound in solution. Compound solubility effects were investigated using a tool compound available in three micronised salt forms with varying solubilities. The free base (FB), hydroxynapthoate (HNA) and hydrochloride (HCl) forms were each administered to the IPRLu model at a dose equivalent to 15 μg free base.
# Data generated with the IPRLu model on 17 marketed drugs (14 out of 17 designed for inhaled delivery) are shown in Table I. All the compounds display a moderate to high extent of total dose in the perfusate at 20 minutes (10–100%), in keeping with the in-house observation that compounds displaying < <10% carry a high risk of accumulation in the lung upon repeat dosing, which can lead to developability issues and high attrition rates. The marketed compound set can be classified into two groups according to their solubility. The first group are reasonably soluble in the dose formulation (>80% of the parent compound in solution, determined by dose analysis pre- and post-centrifugation) and display similar values for %SDiP and %TDiP. The second group are only partially soluble in the dose formulation (<80% of the parent compound in solution) and therefore display greater values for %SDiP compared to %TDiP.
# [2] = isolated perfused respiring rat lung (IPRLu) model, intratracheal instillation; details: for recovery at 20 min / half-life: male, CD, rat, 100 μL, pH 7.4; for recovery at 20 min: isolated perfused respiring rat lung (IPRLu), lungs in situ; for %SDiP: solubilised dose in perfusate at 20 mins; for %TDiP: total dose in perfusate at 20 mins
# Experimental: The IPRLu model, including surgery, dosing and sample collection, was performed by the Laboratory Animal Sciences department at GSK. Methodology was based on that described by Tronde et al. (23;24) but with lungs remaining in situ and intratracheal instillation as the dosing technique. Prior to surgery male CD rats were anaesthetised with intraperitoneal ketamine and medetomidine (Dormitor^TM) at […] and 0.5 ml/kg respectively. In addition, 50U of heparin was administered intravenously via a tail vein. Following confirmation of anaesthesia, the front of the rib cage was removed to access heart and lungs, and the trachea cannulated and secured with a ligature. Respiration was transferred to a positive pressure small animal ventilator (Harvard Apparatus Ltd, Edenbridge, Kent, UK) and maintained at 40 breaths per minute with a tidal volume of 1.8 ml. Following exsanguination, the pulmonary artery and vein were cannulated through incisions in the right and left ventricles in order to isolate the blood pulmonary circulatory system. The rat was then raised and maintained at an angle of 45° using a custom made elevating chamber similar to that described by Brain et al. ([26]). […] After an initial first pass to flush blood from the lung vasculature, the perfusion buffer was then recirculated for approximately 10 minutes to equilibrate and attain the required flow rate. Lungs were visually inspected for leaks and signs of oedema ([27]). Compounds were administered either discretely or co-formulated (2–4 compounds) and experiments were carried out in duplicate. Doses (100 μL) were administered to the trachea slightly above the bifurcation point by introduction of a 50 mm needle Hamilton syringe into the tracheal cannula followed by 3 x 1 ml of air. The tracheal cannula was then reattached to the ventilator and total perfusate was collected over 1 min intervals for 20 mins. Perfusate aliquots (1 ml) were frozen (-20°C) along with terminal lung samples prior to analysis.
# Homogenised lung and perfusate samples underwent protein precipitation by addition of a 3-fold excess of acetonitrile containing an internal standard. Following either filtration or centrifugation the resulting filtrate or supernatant was typically dried down under a nitrogen stream and then reconstituted in the mobile phase used for separation by HPLC. Following sample preparation lung and perfusate samples, along with residual dose formulations (pre- and post-centrifugation) were analysed by HPLC tandem mass spectrometry (LC-MS/MS), typically using a generic reverse phase chromatography gradient method with separation on a C18 column (50 x 2.1 mm, 3 μm) and an acidified mobile phase.
# The cumulative amount of parent compound crossing the lung into the perfusate by the end of the 20 minute experiment was expressed as % of the total dose or as % of the dose originally in solution (solubilised dose). The relative rate of absorption across the lungs was also calculated, the percentage of the administered dose remaining in the lungs was plotted semilogarithimically against time and the initial rate of absorption expressed as a half-life.
# [3] = other: intratracheal instillation
# [4] = mean (n = 2), range in brackets
# [5] = solubility in dose vehicle determined post study on a discrete weighing of the compound
SMILES,% Dose in solution [1],"recovery at 20 min [2, 3]","half-life [2, 3]","%SDiP [2, 4]","%TDiP [2, 4]",also measured
CCCC1O[C@@H]2C[C@H]3[C@@H]4CCC5=CC(=O)C=C[C@]5(C)[C@H]4[C@@H](O)C[C@]3(C)[C@]2(C(=O)CO)O1 (stereo partly shown) [Budesonide],14%,84%,3.3 min,551 (540–561) %,77 (76–79) %,"%SDiP ([2]; mean (n = 2), range in brackets, listed as budesonide): > 100%"
CC(C)(O)c1ccccc1CC[C@@H](SCC1(CC(=O)O)CC1)c1cccc(/C=C/c2ccc3ccc(Cl)cc3n2)c1 [Montelukast],73%,77%,42 min,,67 (57–78) %,
CCC(=O)O[C@]1(C(=O)SCF)[C@H](C)C[C@H]2[C@@H]3C[C@H](F)C4=CC(=O)C=C[C@]4(C)[C@@]3(F)[C@@H](O)C[C@@]21C [Fluticasone Propionate],0.5%,,115 min,,10 (10) %,"%SDiP [2, 5]: 2000^c %; %SDiP ([2]; solubility in dose vehicle determined post study on a discrete weighing of the compound, listed as fluticasone propionate): > 100%"
CC1(C)O[C@@H]2C[C@H]3[C@@H]4C[C@H](F)C5=CC(=O)C=C[C@]5(C)[C@H]4[C@@H](O)C[C@]3(C)[C@]2(C(=O)CO)O1 [Flunisolide],42%,139%,15 min,96 (66–126) %,41 (28–53) %,"%SDiP ([2]; mean (n = 2), range in brackets, listed as flunisolide): 100%"
Nc1c(Br)cc(Br)cc1CN[C@H]1CC[C@H](O)CC1 [Ambroxol],95%,70%,39 min,,,
CCN(CC)CC(=O)Nc1c(C)cccc1C [Lidocaine],100%,,,,75 (64–82) %,"%SDiP [2, 5]: 75^c %"
N=C(N)NC(=O)c1nc(Cl)c(N)nc1N [Amiloride],100%,81%,8 min,,,
COc1ccc(C[C@@H](C)NC[C@H](O)c2ccc(O)c(NC=O)c2)cc1.COc1ccc(C[C@@H](C)NC[C@H](O)c2ccc(O)c(NC=O)c2)cc1.O=C(O)/C=C/C(=O)O [Formoterol Fumerate],100%,,,47 (42–52) %,47 (42–52) %,"Lung T1/2 (mins) ([2]; lung absorption half-life, mean (n = 2), range in brackets): 24 (22–26) mins; Recovery of total dose (%) ([2]; only where lung analysis was carried out, mean (n = 2), range in brackets): 73 (70–76) %"
CCc1cc2c(cc1CC)CC(NC[C@H](O)c1ccc(O)c3[nH]c(=O)ccc13)C2 [Indacaterol],88%,91%,273 min,12 (12) %,"11 (10,11) %","%SDiP ([2]; mean (n = 2), range in brackets, listed as indacaterol): 12%"
C[C@@H]1C[C@H]2[C@@H]3C[C@H](F)C4=CC(=O)C=C[C@]4(C)[C@@]3(F)[C@@H](O)C[C@]2(C)[C@@]1(OC(=O)c1ccco1)C(=O)SCF [Fluticasone Furoate],3.2%,,153 min,,10 (7–12) %,"%SDiP [2, 5]: 300^c %; %SDiP ([2]; solubility in dose vehicle determined post study on a discrete weighing of the compound, listed as fluticasone furoate): > 100%"
CC(C)[N+]1(C)[C@@H]2CC[C@H]1C[C@@H](OC(=O)C(CO)c1ccccc1)C2 (stereo partly shown) [Ipratropium Bromide],100%,,,,,
CCCc1c2oc(C(=O)O)cc(=O)c2cc2c(=O)cc(C(=O)O)n(CC)c12 [Nedocromil],24%,85%,32 min,125 (83–166) %,32 (23–40) %,"%SDiP ([2]; mean (n = 2), range in brackets, listed as nedocromil): > 100%"

# Continued, in another order:
% Dose in solution [1],"recovery at 20 min [2, 3]","half-life [2, 3]","%SDiP [2, 4]","%TDiP [2, 4]",SMILES,also measured
55%,78%,,,,CC(C)(C)NCC(O)c1ccc(O)c(CO)c1 (stereo not shown) [Salbutamol],
36%,69%,146 min,41 (16–66) %,15 (6–24) %,OCc1cc(C(O)CNCCCCCCOCCCCc2ccccc2)ccc1O (stereo not shown) [Salmeterol],
21%,,28 min,178 (176–180) %,38 (38) %,"C=CC[C@@H]1/C=C(\C)C[C@H](C)C[C@H](OC)[C@H]2O[C@@](O)(C(=O)C(=O)N3CCCC[C@H]3C(=O)O[C@H](/C(C)=C/[C@@H]3CC[C@@H](O)[C@H](OC)C3)[C@H](C)[C@@H](O)CC1=O)[C@H](C)C[C@@H]2OC [Tacrolimus (prograf), Tacrolimus]","%SDiP ([2]; mean (n = 2), range in brackets, listed as tacrolimus): > 100%"
,,,,61 (59–62) %,C[N+]1(C)[C@@H]2C[C@@H](OC(=O)C(O)(c3cccs3)c3cccs3)C[C@H]1[C@@H]1O[C@@H]12 [Tiotropium Bromide],half-life [2]: 16 min
,104%,7 min,,100 (100–100) %,CC(=O)N[C@H]1[C@H]([C@H](O)[C@H](O)CO)OC(C(=O)O)=C[C@@H]1N=C(N)N [Zanamivir],
